Assay results taken from patent publication US20030078274A1, “Method of reducing neuronal injury or apoptosis” (priority 1999, published 2003).

Assays:
[1] = test system: neurons in rat cerebrocortical cultures (gp120-induced apoptosis); assay: gp120-induced neuronal apoptosis in rat cerebrocortical cultures; assay type: cell-based, Sprague-Dawley rats; conditions: SB 203580 10 μM, applied 15 min before gp120
Experimental: The model used in the assays described below, i.e., rat cerebrocortical cultures, was prepared from embryos of Sprague-Dawley rats at day 15 to 17 of gestation. See Lei et al., Neuron 8:1087-1099 (1992) and Lipton et al., Nature 364:626-632 (1993). Cultures were used for experiments after 17 to 24 days in culture. […] Prior to some experiments, macrophages/microglia or neurons were depleted from the cultures by exposure to 7.5 mM L-leucine methyl ester or 2 mM N-methyl-D-aspartate (NMDA), respectively. See Lipton, NeuroReport 3:913-915 (1992). […] In some experiments, the Griess reaction was used to measure nitrite levels in the culture medium as an index of nitric oxide (NO) release. See Chao et al., Glia 16:276-284 (1996).
Cultures were transferred into Earle's Balanced Salt Solution (EBSS) and incubated for 24 hours with gp120, chemokines, Tuftsin fragment 1-3, i.e., Thr-Lys-Pro (TKP), p38 MAPK inhibitor SB 203580 (i.e., 4-(4-fluorophenyl)-2-(4-methylsulfinylphenyl)-5-(4-pyridyl)imidazole, Calbiochem, San Diego, Calif.), or combinations thereof. Chemokines or TKP were applied for 5 minutes and SB 203580 for 15 minutes prior to gp120 exposure.
TKP was obtained from Sigma (St. Louis, Mo.). Recombinant human MIP-1β, SDF-1α, SDF-1β, and recombinant rat RANTES were purchased from R&D systems ([…].) and Endogen (Woburn, Mass.), respectively. HIV-1 envelope glycoprotein gp120 from the strain SF2 was obtained from the NIH AIDS Research and Reference Reagent Program, Division of AIDS, NIAID, NIH. See Scandella et al., AIDS Res. Hum. Retroviruses 9:1233-1244 (1993). Additional gp120s from HIV-1 strains IIIB and RF2 were obtained from Genetech and the National Cancer Institute, respectively. TNFα, IFNγ, and IL-1β were from Genzyme (Cambridge, Mass.), Gibco BRL (Grand Island, N.Y.) and Endogen (Woburn, Mass.), respectively.
Neuronal apoptosis in the above-described assays was assessed using a variety of techniques, e.g., staining of permeabilized cells with propidium iodide to determine apoptotic morphology, and a neuron-specific antibody (against NeuN or MAP-2) to identify cell type. In brief, cells were fixed for 5 minutes with ice-cold acetone at −20° C. and, after three washes in PBS, for 4 minutes with 2% (w/v) paraformaldehyde solution in PBS at room temperature (RT). Acetone-paraformaldehyde-fixed cells were permeabilized using 0.2% Tween 20 in PBS (PBST), and non-specific binding sites were blocked by incubation for 1 hour with a 10% solution of heat-inactivated goat serum in PBST. To specifically stain neurons, cells were then incubated for 4 hours at RT or overnight at 4° C. with 1:500 dilutions of anti-MAP-2 (Sigma) or anti-NeuN monoclonal antibody (mAb; Chemicon, Temecula, Calif.). Their respective non-specific isotype antibodies served as controls. After three washes, the cells were incubated in a secondary polyclonal antibody (pAb) conjugated either to fluorescein isothiocyanate (FITC) or to horseradish peroxidase (HRP). In the case of HRP-coupled pAb, diaminobenzidine (DAB) served as the color substrate developed by incubation in a mixture of 1 mg/ml DAB and 0.8% H2O2 at a ratio of 3:1. Cellular nuclei were subsequently stained with […] propidium iodide for 5 minutes in the dark, and then coverslips were mounted on glass slides. Experiments were replicated at least 3 times with triplicate values in each experiment. Statistical significance was judged by an analysis of variance (ANOVA) followed by a Scheffé or Bonferroni/Dunn post hoc test.

[2] = test system: neurons in rat cerebrocortical cultures (SDF-1-induced apoptosis); assay: SDF-1-induced neuronal apoptosis in rat cerebrocortical cultures; assay type: cell-based, Sprague-Dawley rats; conditions: p38 MAPK inhibition by SB 203580, FIG. 4(B)
Experimental: The model used in the assays described below, i.e., rat cerebrocortical cultures, was prepared from embryos of Sprague-Dawley rats at day 15 to 17 of gestation. See Lei et al., Neuron 8:1087-1099 (1992) and Lipton et al., Nature 364:626-632 (1993). Cultures were used for experiments after 17 to 24 days in culture. These cultures contain neurons, astrocytes, and macrophages/microglia, as determined with specific immunolabeling. Prior to some experiments, macrophages/microglia or neurons were depleted from the cultures by exposure to 7.5 mM L-leucine methyl ester or 2 mM N-methyl-D-aspartate (NMDA), respectively. See Lipton, NeuroReport 3:913-915 (1992). Absence of macrophages/microglia or neurons in these cultures was confirmed immunocytochemically, using antibodies to ED-1 and microtubule-associated protein-2 (MAP-2), respectively. In some experiments, the Griess reaction was used to measure nitrite levels in the culture medium as an index of nitric oxide (NO) release. See Chao et al., Glia 16:276-284 (1996). […]
Neuronal apoptosis in the above-described assays was assessed using a variety of techniques, e.g., staining of permeabilized cells with propidium iodide to determine apoptotic morphology, and a neuron-specific antibody (against NeuN or MAP-2) to identify cell type. […]

C[S+]([O-])c1ccc(-c2nc(-c3ccc(F)cc3)c(-c3ccncc3)[nH]2)cc1 (centres unmarked) [SB 203580, 4-(4-fluorophenyl)-2-(4-methylsulfinylphenyl)-5-(4-pyridyl)-1H-imidazole]
effect on gp120SF2-induced neuronal apoptosis [1]: substantially attenuated | effect on SDF-1 neurotoxicity (SDF-1β-induced neuronal apoptosis) [2]: ameliorated
